Test results published in patent US9902725B2, “Heterocyclic derivatives as RORgamma modulators” (GENFIT, priority 2014, dated 2018).

Assays:
human RORγt = molecular target: T1, human RORγt (Homo sapiens, UniProt P51449); experiment: IL-17 secretion from EL4 murine lymphoma overexpressing human RORγt; format: cell-based; parameters: expressed in transfected cells; host or cells: EL-4 murine lymphoma; details: IL-17 secretion inhibition, PMA and ionomycin stimulation, 24 h
T1 sequence (P51449 1-497 isoform P51449-2): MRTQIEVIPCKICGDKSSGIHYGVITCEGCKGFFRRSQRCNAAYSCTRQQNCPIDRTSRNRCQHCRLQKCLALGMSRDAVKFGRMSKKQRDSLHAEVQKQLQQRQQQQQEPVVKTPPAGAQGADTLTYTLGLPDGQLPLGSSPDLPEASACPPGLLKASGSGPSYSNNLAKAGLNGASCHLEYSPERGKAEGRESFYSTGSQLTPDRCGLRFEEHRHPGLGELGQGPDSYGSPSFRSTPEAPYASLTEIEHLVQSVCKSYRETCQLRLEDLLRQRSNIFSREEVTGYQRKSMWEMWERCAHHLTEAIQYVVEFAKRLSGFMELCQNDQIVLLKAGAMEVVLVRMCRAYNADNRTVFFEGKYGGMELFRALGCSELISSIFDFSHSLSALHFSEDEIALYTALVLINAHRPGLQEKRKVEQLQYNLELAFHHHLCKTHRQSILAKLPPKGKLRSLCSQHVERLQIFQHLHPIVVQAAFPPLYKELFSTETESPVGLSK
How it was run: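 EL4 murine lymphoma cells electroporated with hRORγt plasmid, seeded 150000 cells/well, pretreated with compound, then stimulated with PMA (10 ng/mL) and ionomycin (1 μM final) with compound for a further 24 h at 37° C. IL-17 in supernatant measured by HTRF or ELISA.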

CYP2D6 = CYP2D6 (Homo sapiens, UniProt P10635); experiment: CYP inhibition CYP2D6 (CEREP); format: in vitro ADME; details: human, recombinant CYP2D6, human recombinant CYP, single concentration (typically 10 μM); read-out: CYP 2D6 (% inhibition of Control)
CYP2D6, sequence (P10635 whole entry): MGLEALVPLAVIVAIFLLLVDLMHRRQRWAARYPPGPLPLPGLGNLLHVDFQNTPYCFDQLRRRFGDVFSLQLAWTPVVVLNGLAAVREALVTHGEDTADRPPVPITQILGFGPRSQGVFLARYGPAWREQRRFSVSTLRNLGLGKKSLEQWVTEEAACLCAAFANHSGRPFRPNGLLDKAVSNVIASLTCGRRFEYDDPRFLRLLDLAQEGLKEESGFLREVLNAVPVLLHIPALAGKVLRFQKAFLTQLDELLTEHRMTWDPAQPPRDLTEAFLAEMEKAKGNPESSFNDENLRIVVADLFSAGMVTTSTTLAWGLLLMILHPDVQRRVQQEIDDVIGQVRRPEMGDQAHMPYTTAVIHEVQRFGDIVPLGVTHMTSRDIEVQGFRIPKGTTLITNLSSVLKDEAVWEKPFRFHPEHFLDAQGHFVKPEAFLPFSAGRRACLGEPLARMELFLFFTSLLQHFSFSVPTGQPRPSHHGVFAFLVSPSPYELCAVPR
Description: All the assays were conducted at CEREP (CEREP, France and USA). Metabolic compound stability was tested in human (CEREP, Ref 607) and mouse (CEREP, Ref: 806) microsomes. Inhibition of human drug-metabolizing cytochromes P450 was tested on the five most commonly responsible enzymes of metabolism of xenobiotics, CYP1A2 (CEREP, Ref 389), CYP2C9 (CEREP, Ref 412), CYP2C19 (CEREP, Ref 390), CYP2D6 (CEREP, Ref 1338) and CYP3A4 (CEREP, Ref 391).
Briefly, CEREP's CYP inhibition assay uses traditional probe substrates, which are specific to individual CYP isoforms. 3-cyano-7-ethoxycoumarin is mainly catalyzed by CYP1A2 and CYP2C19, 3-[2-(N,N-diethyl-N-methylammonium)ethyl]-7-methoxy-4-methylcoumarin for CYP2C9 and CYP2D6 and finally, 7-benzyloxy-4-trifluoromethylcoumarin is pathway catalyzed predominantly by CYP3A4. The inhibition assays were performed with human recombinant CYP isoforms preparations. HPLC MS/MS methods are used to detect metabolites in these assays. Compounds were tested at single concentrations (typically 10 μM) and data were expressed as percent of control inhibition.

Compound | IC50 (human RORγt) [nM] | inhibition at 10 µM (CYP2D6) [%]
O=C(O)CCc1c[nH]c2ccc(CC(=O)NC(c3ccccc3)c3ccccc3N3CCCCC3)cc12 (centres unmarked) [Cpd. 1, 3-{5-[({phenyl[2-(piperidin-1-yl)phenyl]methyl}carbamoyl)methyl]-1H-indol-3-yl}propanoic acid] | 1000 to 10000 | 49
O=C(O)CCc1c[nH]c2ccc(CC(=O)NC(c3cccc(F)c3)c3ccccc3N3CCCCC3)cc12 (centres unmarked) [Cpd. 3, 3-[5-({[(3-fluorophenyl)[2-(piperidin-1-yl)phenyl]methyl]carbamoyl}methyl)-1H-indol-3-yl]propanoic acid] | 1000 to 10000 | -2
CC(C)CC(NC(=O)Cc1ccc2[nH]cc(CCC(=O)O)c2c1)c1ccccc1N1CCCCC1 (centres unmarked) [Cpd. 29, 3-{5-[({3-methyl-1-[2-(piperidin-1-yl)phenyl]butyl}carbamoyl)methyl]-1H-indol-3-yl}propanoic acid] | 1000 to 10000 | 18.2
O=C(O)CCc1c[nH]c2ccc(CC(=O)NC(c3ccccc3)c3ccc(C(F)(F)F)cc3N3CCCC3)cc12 (centres unmarked) [Cpd. 48, 3-{5-[({phenyl[2-(pyrrolidin-1-yl)-4-(trifluoromethyl)phenyl]methyl}carbamoyl)methyl]-1H-indol-3-yl}propanoic acid] | 1000 to 10000 | 78.9
Cc1ccc(C(NC(=O)Cc2ccc3[nH]cc(CCC(=O)O)c3c2)c2ccccc2)c(N(C)C)c1 (centres unmarked) [Cpd. 192, 3-{5-[({[2-(dimethylamino)-4-methylphenyl](phenyl)methyl}carbamoyl)methyl]-1H-indol-3-yl}propanoic acid] | < 1000 | 4.3
O=C(O)CCCc1c[nH]c2ccc(CC(=O)NC(c3ccccc3)c3ccccc3N3CCCCC3)cc12 (centres unmarked) [Cpd. 212, 4-{5-[({phenyl[2-(piperidin-1-yl)phenyl]methyl}carbamoyl)methyl]-1H-indol-3-yl}butanoic acid] | 1000 to 10000 | -6.3

The next lines start with the values.

IC50 (human RORγt) [nM] | inhibition at 10 µM (CYP2D6) [%] | Compound
< 1000 | 13.5 | Cc1ccc(C(NC(=O)Cc2ccc3[nH]cc(CCC(=O)O)c3c2)c2ccccc2)c(N2CCCC2)c1 (centres unmarked) [Cpd. 5, 3-{5-[({[4-methyl-2-(pyrrolidin-1-yl)phenyl](phenyl)methyl}carbamoyl)methyl]-1H-indol-3-yl}propanoic acid]
< 1000 | 26.5 | O=C(O)CCc1c[nH]c2ccc(CC(=O)NC(c3ccccc3)c3ccc(Br)cc3N3CCCC3)cc12 (centres unmarked) [Cpd. 50, 3-{5-[({[4-bromo-2-(pyrrolidin-1-yl)phenyl](phenyl)methyl}carbamoyl)methyl]-1H-indol-3-yl}propanoic acid]
< 1000 | 6.2 | Cc1ccc(C(NC(=O)Cc2ccc3[nH]cc(CCC(=O)O)c3c2)c2ccccc2)c(N2CCCCC2)c1 (centres unmarked) [Cpd. 77, 3-{5-[({[4-methyl-2-(piperidin-1-yl)phenyl](phenyl)methyl}carbamoyl)methyl]-1H-indol-3-yl}propanoic acid]
1000 to 10000 | 7.5 | COc1ccc(C(NC(=O)Cc2ccc3[nH]cc(CCC(=O)O)c3c2)c2ccccc2)c(N2CCCCC2)c1 (centres unmarked) [Cpd. 111, 3-{5-[({[4-methoxy-2-(piperidin-1-yl)phenyl](phenyl)methyl}carbamoyl)methyl]-1H-indol-3-yl}propanoic acid]
